Experimental findings from paper PMC3832412 (PLoS ONE, 2013) are described below.

Entries after “also recorded” stand apart in the source; their conditions may differ.

The test system of experiment [1] is NMDAR in primary rat hippocampal neurons. The experiment is classed as cell-based, rat (Sprague-Dawley).
Experiment [2] shares this test system. Type of experiment: cell-based, rat (Sprague-Dawley). The source holds these as a separate data set.

As for “GIKAQRDILYYγGγGγEHI-CONH2 [scrambled peptide]”, the “effect on iCa^2+ levels” value in experiment [1] is “did not result in any decrease in iCa^2+ levels; also recorded: no significant differences; also recorded: no such inhibitory activity”. Also, the “inhibition of NMDA-evoked current” value in experiment [2] was “did not inhibit NMDA-evoked currents; also recorded: no such inhibitory activity”.
